# Assay results as given in ChEMBL document CHEMBL6109109, “Fatty acid binding protein 5 inhibitors as novel anticancer agents against metastatic castration-resistant prostate cancer” (Bioorg Med Chem, 2025).
# How the values were obtained:
# Type in all cases: functional
# [1] = system: PC-3; test: Cytotoxicity against human PC-3 cells assessed as cell growth inhibition at […] measured after 72 hrs by MTT assay relative to control; details: dose 2.5 µM, read-out: GI
# [2] = system: PC-3; test: Cytotoxicity against human PC-3 cells assessed as cell growth inhibition at 0.625 uM measured after 72 hrs by MTT assay relative to control; details: read-out: GI
# [3] = system: PC-3; test: Synergistic anticancer activity against human PC-3 cells assessed as cell growth inhibition at […] measured after 72 hrs in presence of 0.00001 uM of topotecan by MTT assay relative to control; details: dose 2.5 µM, read-out: GI
# [4] = system: PC-3; test: Synergistic anticancer activity against human PC-3 cells assessed as cell growth inhibition at […] measured after 72 hrs in presence of 0.01 uM of topotecan by MTT assay relative to control; details: dose 2.5 µM, read-out: GI
# [5] = system: PC-3; test: Synergistic anticancer activity against human PC-3 cells assessed as cell growth inhibition at […] measured after 72 hrs in presence of 0.1 uM of topotecan by MTT assay relative to control; details: dose 2.5 µM, read-out: GI
# [6] = system: PC-3; test: Synergistic anticancer activity against human PC-3 cells assessed as cell growth inhibition at […] measured after 72 hrs in presence of 1 uM of topotecan by MTT assay relative to control; details: dose 2.5 µM, read-out: GI
# [7] = system: PC-3; test: Synergistic anticancer activity against human PC-3 cells assessed as cell growth inhibition at […] measured after 72 hrs in presence of 10 uM of topotecan by MTT assay relative to control; details: dose 2.5 µM, read-out: GI
# [8] = system: PC-3; test: Synergistic anticancer activity against human PC-3 cells assessed as cell growth inhibition at 1.25 uM measured after 72 hrs in presence of 0.00001 uM of topotecan by MTT assay relative to control; details: read-out: GI
# [9] = system: PC-3; test: Synergistic anticancer activity against human PC-3 cells assessed as cell growth inhibition at 1.25 uM measured after 72 hrs in presence of 0.0001 uM of topotecan by MTT assay relative to control; details: read-out: GI
# [10] = system: PC-3; test: Synergistic anticancer activity against human PC-3 cells assessed as cell growth inhibition at 1.25 uM measured after 72 hrs in presence of 0.01 uM of topotecan by MTT assay relative to control; details: read-out: GI
# [11] = system: PC-3; test: Synergistic anticancer activity against human PC-3 cells assessed as cell growth inhibition at 1.25 uM measured after 72 hrs in presence of 0.1 uM of topotecan by MTT assay relative to control; details: read-out: GI
# [12] = system: PC-3; test: Synergistic anticancer activity against human PC-3 cells assessed as cell growth inhibition at 1.25 uM measured after 72 hrs in presence of 1 uM of topotecan by MTT assay relative to control; details: read-out: GI
# [13] = system: PC-3; test: Synergistic anticancer activity against human PC-3 cells assessed as cell growth inhibition at 1.25 uM measured after 72 hrs in presence of 10 uM of topotecan by MTT assay relative to control; details: read-out: GI
# [14] = system: PC-3; test: Synergistic anticancer activity against human PC-3 cells assessed as cell growth inhibition at 0.625 uM measured after 72 hrs in presence of 0.00001 uM of topotecan by MTT assay relative to control; details: read-out: GI
# [15] = system: PC-3; test: Synergistic anticancer activity against human PC-3 cells assessed as cell growth inhibition at 0.625 uM measured after 72 hrs in presence of 0.0001 uM of topotecan by MTT assay relative to control; details: read-out: GI
# [16] = system: PC-3; test: Synergistic anticancer activity against human PC-3 cells assessed as cell growth inhibition at 0.625 uM measured after 72 hrs in presence of 0.001 uM of topotecan by MTT assay relative to control; details: read-out: GI
# [17] = system: PC-3; test: Synergistic anticancer activity against human PC-3 cells assessed as cell growth inhibition at 0.625 uM measured after 72 hrs in presence of 0.01 uM of topotecan by MTT assay relative to control; details: read-out: GI
# [18] = system: PC-3; test: Synergistic anticancer activity against human PC-3 cells assessed as cell growth inhibition at 0.625 uM measured after 72 hrs in presence of 1 uM of topotecan by MTT assay relative to control; details: read-out: GI
# [19] = system: PC-3; test: Synergistic anticancer activity against human PC-3 cells assessed as cell growth inhibition at 0.625 uM measured after 72 hrs in presence of 10 uM of topotecan by MTT assay relative to control; details: read-out: GI
# [20] = Cytotoxicity against mouse RCaP cells assessed as cell growth inhibition at 1.25 uM measured after 72 hrs by MTT assay relative to control; details: read-out: GI
# [21] = Cytotoxicity against mouse RCaP cells assessed as cell growth inhibition at 0.625 uM measured after 72 hrs by MTT assay relative to control; details: read-out: GI
# [22] = Synergistic anticancer activity against mouse RCaP cells assessed as cell growth inhibition at 1.25 uM measured after 72 hrs in presence of 0.00001 uM of topotecan by MTT assay relative to control; details: read-out: GI
# [23] = Synergistic anticancer activity against mouse RCaP cells assessed as cell growth inhibition at 1.25 uM measured after 72 hrs in presence of 0.0001 uM of topotecan by MTT assay relative to control; details: read-out: GI
# [24] = Synergistic anticancer activity against mouse RCaP cells assessed as cell growth inhibition at 1.25 uM measured after 72 hrs in presence of 0.001 uM of topotecan by MTT assay relative to control; details: read-out: GI
# [25] = Synergistic anticancer activity against mouse RCaP cells assessed as cell growth inhibition at 1.25 uM measured after 72 hrs in presence of 0.01 uM of topotecan by MTT assay relative to control; details: read-out: GI
# [26] = Synergistic anticancer activity against mouse RCaP cells assessed as cell growth inhibition at 1.25 uM measured after 72 hrs in presence of 0.1 uM of topotecan by MTT assay relative to control; details: read-out: GI
# [27] = Synergistic anticancer activity against mouse RCaP cells assessed as cell growth inhibition at 1.25 uM measured after 72 hrs in presence of 1 uM of topotecan by MTT assay relative to control; details: read-out: GI
# [28] = Synergistic anticancer activity against mouse RCaP cells assessed as cell growth inhibition at 0.625 uM measured after 72 hrs in presence of 0.00001 uM of topotecan by MTT assay relative to control; details: read-out: GI
# [29] = Synergistic anticancer activity against mouse RCaP cells assessed as cell growth inhibition at 0.625 uM measured after 72 hrs in presence of 0.0001 uM of topotecan by MTT assay relative to control; details: read-out: GI
# [30] = Synergistic anticancer activity against mouse RCaP cells assessed as cell growth inhibition at 0.625 uM measured after 72 hrs in presence of 0.001 uM of topotecan by MTT assay relative to control; details: read-out: GI
# [31] = Synergistic anticancer activity against mouse RCaP cells assessed as cell growth inhibition at 0.625 uM measured after 72 hrs in presence of 0.01 uM of topotecan by MTT assay relative to control; details: read-out: GI
# [32] = Synergistic anticancer activity against mouse RCaP cells assessed as cell growth inhibition at 0.625 uM measured after 72 hrs in presence of 0.1 uM of topotecan by MTT assay relative to control; details: read-out: GI
# [33] = Synergistic anticancer activity against mouse RCaP cells assessed as cell growth inhibition at 0.625 uM measured after 72 hrs in presence of 1 uM of topotecan by MTT assay relative to control; details: read-out: GI
# [34] = Synergistic anticancer activity against mouse RCaP cells assessed as cell growth inhibition at 0.625 uM measured after 72 hrs in presence of 10 uM of topotecan by MTT assay relative to control; details: read-out: GI
smiles,measurement,setting,value
COc1ccccc1[C@H]1[C@H](C(=O)O)[C@H](c2ccccc2OC)[C@H]1C(=O)Oc1cc(-c2ccc3c(c2)OCO3)ccc1-c1ccccc1,inhibition of growth at […],[1],7.37%
same,inhibition of growth at 0.625 µM,[2],-2.63%
same,inhibition of growth at […],[3],15.1%
same,inhibition of growth at […],[4],54.6%
same,inhibition of growth at […],[5],67.4%
same,inhibition of growth at […],[6],90.5%
same,inhibition of growth at […],[7],92.9%
same,inhibition of growth at 1.25 µM,[8],12.9%
same,inhibition of growth at 1.25 µM,[9],14.7%
same,inhibition of growth at 1.25 µM,[10],55.8%
same,inhibition of growth at 1.25 µM,[11],72.5%
same,inhibition of growth at 1.25 µM,[12],92.3%
same,inhibition of growth at 1.25 µM,[13],93.4%
same,inhibition of growth at 0.625 µM,[14],1.6%
same,inhibition of growth at 0.625 µM,[15],8.03%
same,inhibition of growth at 0.625 µM,[16],16.9%
same,inhibition of growth at 0.625 µM,[17],48%
same,inhibition of growth at 0.625 µM,[18],90.2%
same,inhibition of growth at 0.625 µM,[19],93.2%
same,inhibition of growth at 1.25 µM,[20],-1.17%
same,inhibition of growth at 0.625 µM,[21],-2.53%
same,inhibition of growth at 1.25 µM,[22],-1.87%
same,inhibition of growth at 1.25 µM,[23],-1.6%
same,inhibition of growth at 1.25 µM,[24],0.37%
same,inhibition of growth at 1.25 µM,[25],8.37%
same,inhibition of growth at 1.25 µM,[26],90%
same,inhibition of growth at 1.25 µM,[27],97.6%
same,inhibition of growth at 0.625 µM,[28],-2.77%
same,inhibition of growth at 0.625 µM,[29],-3.7%
same,inhibition of growth at 0.625 µM,[30],-4.87%
same,inhibition of growth at 0.625 µM,[31],10%
same,inhibition of growth at 0.625 µM,[32],90.2%
same,inhibition of growth at 0.625 µM,[33],97.9%
same,inhibition of growth at 0.625 µM,[34],99.2%
